From ChEMBL document CHEMBL1201862, “PubChem BioAssay data set” (2004)
Activity calls are given as the source filed them.

Legend:
[1] = biological target: T1, Voltage-gated N-type calcium channel alpha-1B subunit/Amyloid beta A4 precursor protein-binding family A member 1 (Homo sapiens, UniProt Q00975+Q02410); format: protein assay
[2] = biological target: T1, Voltage-gated N-type calcium channel alpha-1B subunit/Amyloid beta A4 precursor protein-binding family A member 1; format: protein assay; remark: listed apart in the source
[3] = HEK-293T cell viability reduction – luminescence, B-cell screen hits, cytotoxicity control for BCR NF-kB inhibitor project, dose response (AID 489021); format: functional, cell-based;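 also: HEK-293T cells carrying an NF-kB luciferase reporter; cells exposed to compound for about 14 hours before viability readout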
[4] = HEK-293T viability loss after treatment – luminescence, T-cell screen hits, cytotoxicity control for TCR NF-kB inhibitor project, dose response (AID 489026); format: functional, cell-based;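 also: cells exposed to compound about 14 hours before the viability readout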
[5] = biological target: Voltage-dependent T-type calcium channel subunit alpha-1H (Homo sapiens, UniProt O95180); format: functional;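 also: channel activity triggered by adding a high calcium stimulation buffer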
cells = format: functional
Leucine aminopeptidase = biological target: T2, Leucine aminopeptidase (Plasmodium falciparum 3D7, UniProt Q8IL11); test: P. falciparum M17LAP inhibitors, primary screen, biochemical, fluorogenic H-Leu-NHMec substrate, 1536-well (AID 1619); format: functional
T2 sequence (Q8IL11 whole entry): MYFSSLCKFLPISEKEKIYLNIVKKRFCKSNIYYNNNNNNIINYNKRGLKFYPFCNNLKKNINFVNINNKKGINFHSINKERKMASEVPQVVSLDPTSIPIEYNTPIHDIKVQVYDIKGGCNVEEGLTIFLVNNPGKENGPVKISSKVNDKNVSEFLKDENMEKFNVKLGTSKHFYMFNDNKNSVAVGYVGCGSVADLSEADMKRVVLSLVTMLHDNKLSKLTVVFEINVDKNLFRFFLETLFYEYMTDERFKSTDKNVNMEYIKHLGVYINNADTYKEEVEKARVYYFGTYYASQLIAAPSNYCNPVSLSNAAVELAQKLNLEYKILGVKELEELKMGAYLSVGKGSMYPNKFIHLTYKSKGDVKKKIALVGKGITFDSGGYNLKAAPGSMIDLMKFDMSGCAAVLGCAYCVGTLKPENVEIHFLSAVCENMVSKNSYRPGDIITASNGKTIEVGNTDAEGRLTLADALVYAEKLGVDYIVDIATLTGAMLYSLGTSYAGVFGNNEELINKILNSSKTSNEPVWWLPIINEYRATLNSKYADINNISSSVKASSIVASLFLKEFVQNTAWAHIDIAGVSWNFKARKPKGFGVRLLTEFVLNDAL

Genome polyprotein = Genome polyprotein (dengue virus type 2, UniProt P29990); test: flavivirus cap methylation enzyme inhibition – biochemical, confirmation dose response, primary screen (AID 588689); format: functional
[6] = viability loss in THP-1 monocytes – THP-1 cells, cytotoxicity control for Vif-APOBEC3G degradation inhibitor project, dose response (AID 1117359); format: functional; settings: THP-1
[7] = biological target: T3, Histone-lysine N-methyltransferase NSD2 (Homo sapiens, UniProt O96028); format: biochemical
T3 sequence (O96028 whole entry): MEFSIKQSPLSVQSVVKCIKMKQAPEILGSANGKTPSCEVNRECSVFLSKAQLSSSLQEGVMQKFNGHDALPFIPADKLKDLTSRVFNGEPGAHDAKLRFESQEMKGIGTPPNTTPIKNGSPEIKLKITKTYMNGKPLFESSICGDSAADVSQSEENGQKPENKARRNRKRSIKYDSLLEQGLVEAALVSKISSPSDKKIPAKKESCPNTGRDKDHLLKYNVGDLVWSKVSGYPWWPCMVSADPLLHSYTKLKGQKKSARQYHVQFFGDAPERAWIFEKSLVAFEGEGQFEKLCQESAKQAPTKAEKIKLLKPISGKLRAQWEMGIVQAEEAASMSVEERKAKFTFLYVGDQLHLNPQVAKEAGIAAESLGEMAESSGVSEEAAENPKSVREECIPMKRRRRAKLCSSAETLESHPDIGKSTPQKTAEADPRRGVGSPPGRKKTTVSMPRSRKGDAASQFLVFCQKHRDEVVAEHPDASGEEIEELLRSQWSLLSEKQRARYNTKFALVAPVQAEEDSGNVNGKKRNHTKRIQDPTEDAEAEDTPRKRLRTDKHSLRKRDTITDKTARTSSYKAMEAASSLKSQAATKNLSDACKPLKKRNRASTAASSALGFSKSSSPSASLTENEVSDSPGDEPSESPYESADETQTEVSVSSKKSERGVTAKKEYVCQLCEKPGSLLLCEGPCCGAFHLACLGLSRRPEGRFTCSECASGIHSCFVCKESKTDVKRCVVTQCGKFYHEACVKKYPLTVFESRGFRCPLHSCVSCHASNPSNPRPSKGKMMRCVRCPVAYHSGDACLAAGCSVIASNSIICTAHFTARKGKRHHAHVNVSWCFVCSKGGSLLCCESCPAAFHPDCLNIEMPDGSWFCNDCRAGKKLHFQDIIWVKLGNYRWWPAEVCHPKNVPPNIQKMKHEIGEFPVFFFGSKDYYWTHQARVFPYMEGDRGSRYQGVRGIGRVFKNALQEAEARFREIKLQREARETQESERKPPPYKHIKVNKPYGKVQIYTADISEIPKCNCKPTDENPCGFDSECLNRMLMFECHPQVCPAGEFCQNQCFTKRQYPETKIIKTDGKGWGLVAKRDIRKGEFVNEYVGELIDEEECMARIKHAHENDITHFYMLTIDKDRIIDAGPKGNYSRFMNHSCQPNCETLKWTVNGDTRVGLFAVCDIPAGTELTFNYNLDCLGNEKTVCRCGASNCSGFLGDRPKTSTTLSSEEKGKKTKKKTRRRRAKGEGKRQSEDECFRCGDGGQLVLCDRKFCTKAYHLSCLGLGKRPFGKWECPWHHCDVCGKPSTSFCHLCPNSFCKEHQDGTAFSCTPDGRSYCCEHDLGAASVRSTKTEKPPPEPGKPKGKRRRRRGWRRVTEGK

Large T antigen = Large T antigen (Simian virus 40, UniProt P03070); format: functional, Betapolyomavirus macacae;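 also: Confirmatory-stage PubChem screen for compounds that inhibit SV40 T antigen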
[8] = biological target: FAD-linked sulfhydryl oxidase ALR (Homo sapiens, UniProt P55789); test: ALR-catalysed DTT oxidation blockers – biochemical, H2O2 detection, luminescence, cherry-pick, dose response (AID 493248)
[9] = biological target: T4, Polyadenylate-binding protein 1 (Homo sapiens, UniProt P11940); test: MLLE domain peptide-binding blockers, IC50 – biochemical, fluorescence polarization, FITC-PAM2 peptide, dose response (AID 602259); format: functional; settings: read-out: IC50_Mean
[10] = biological target: T4, Polyadenylate-binding protein 1; test: MLLE binding blockers, Cy5 peptide tracer – biochemical, fluorescence polarization, Cy5-PAM2 peptide, secondary, miRNA deadenylation inhibitor project, dose response (AID 602260); format: functional; settings: read-out: IC50_Mean
[11] = biological target: T5, Zinc finger protein mex-5 (Caenorhabditis elegans, UniProt Q9XUB2); test: potency of MEX-5 RNA-binding blockers – biochemical, C. elegans, fluorescence polarization, dose response (AID 1960)
T5 sequence (Q9XUB2 whole entry): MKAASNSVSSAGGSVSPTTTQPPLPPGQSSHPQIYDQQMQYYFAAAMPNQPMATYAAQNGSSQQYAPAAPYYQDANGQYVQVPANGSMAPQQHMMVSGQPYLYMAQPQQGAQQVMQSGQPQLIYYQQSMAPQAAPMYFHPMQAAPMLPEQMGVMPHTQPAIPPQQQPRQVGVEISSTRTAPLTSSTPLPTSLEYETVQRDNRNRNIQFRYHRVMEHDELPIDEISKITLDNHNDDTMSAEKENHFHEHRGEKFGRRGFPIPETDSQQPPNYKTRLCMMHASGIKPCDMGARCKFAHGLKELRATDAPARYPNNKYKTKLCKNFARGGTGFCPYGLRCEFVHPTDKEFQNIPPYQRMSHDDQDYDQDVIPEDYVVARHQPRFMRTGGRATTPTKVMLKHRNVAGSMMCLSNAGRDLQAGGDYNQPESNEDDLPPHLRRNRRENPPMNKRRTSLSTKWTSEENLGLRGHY

[12] = biological target: T6, RNA-binding protein pos-1 (Caenorhabditis elegans, UniProt G5EF15); test: disruptors of C. elegans POS-1 RNA interaction – biochemical, fluorescence polarization, dose response (AID 1964);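 also: purified POS-1 fused to maltose binding protein made in E. coli; potency of compounds blocking POS-1 binding to fluorescent RNA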
T6 sequence (G5EF15 whole entry): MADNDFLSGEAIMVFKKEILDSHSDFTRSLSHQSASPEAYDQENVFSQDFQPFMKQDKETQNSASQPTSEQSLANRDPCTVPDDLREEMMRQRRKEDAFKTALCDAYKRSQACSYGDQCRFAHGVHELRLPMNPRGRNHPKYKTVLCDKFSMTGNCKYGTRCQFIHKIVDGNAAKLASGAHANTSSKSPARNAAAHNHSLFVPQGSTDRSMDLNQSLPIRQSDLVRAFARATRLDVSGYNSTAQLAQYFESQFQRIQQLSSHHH

[13] = Luminescence Cell-Based Dose Response HTS to Identify Inhibitors of 5'UTR Stem-Loop Driven Prion Protein mRNA Translation in H4 Neuroglioblastoma Cells. [Related pubchem assays: 1827 (Project Summary), 1813 (Primary HTS)]; format: functional
[14] = alpha-synuclein stem-loop luciferase translation blockers – H4 neuroglioma cells, luminescence, confirmation (AID 1988); format: functional, cell-based
[15] = luciferase reporter signal suppression in cells – H4 neuroglioma cells, luminescence, dose response (AID 1990); format: functional, cell-based

Voltage-dependent T-type calcium channel subunit alpha-1H, sequence (O95180 whole entry): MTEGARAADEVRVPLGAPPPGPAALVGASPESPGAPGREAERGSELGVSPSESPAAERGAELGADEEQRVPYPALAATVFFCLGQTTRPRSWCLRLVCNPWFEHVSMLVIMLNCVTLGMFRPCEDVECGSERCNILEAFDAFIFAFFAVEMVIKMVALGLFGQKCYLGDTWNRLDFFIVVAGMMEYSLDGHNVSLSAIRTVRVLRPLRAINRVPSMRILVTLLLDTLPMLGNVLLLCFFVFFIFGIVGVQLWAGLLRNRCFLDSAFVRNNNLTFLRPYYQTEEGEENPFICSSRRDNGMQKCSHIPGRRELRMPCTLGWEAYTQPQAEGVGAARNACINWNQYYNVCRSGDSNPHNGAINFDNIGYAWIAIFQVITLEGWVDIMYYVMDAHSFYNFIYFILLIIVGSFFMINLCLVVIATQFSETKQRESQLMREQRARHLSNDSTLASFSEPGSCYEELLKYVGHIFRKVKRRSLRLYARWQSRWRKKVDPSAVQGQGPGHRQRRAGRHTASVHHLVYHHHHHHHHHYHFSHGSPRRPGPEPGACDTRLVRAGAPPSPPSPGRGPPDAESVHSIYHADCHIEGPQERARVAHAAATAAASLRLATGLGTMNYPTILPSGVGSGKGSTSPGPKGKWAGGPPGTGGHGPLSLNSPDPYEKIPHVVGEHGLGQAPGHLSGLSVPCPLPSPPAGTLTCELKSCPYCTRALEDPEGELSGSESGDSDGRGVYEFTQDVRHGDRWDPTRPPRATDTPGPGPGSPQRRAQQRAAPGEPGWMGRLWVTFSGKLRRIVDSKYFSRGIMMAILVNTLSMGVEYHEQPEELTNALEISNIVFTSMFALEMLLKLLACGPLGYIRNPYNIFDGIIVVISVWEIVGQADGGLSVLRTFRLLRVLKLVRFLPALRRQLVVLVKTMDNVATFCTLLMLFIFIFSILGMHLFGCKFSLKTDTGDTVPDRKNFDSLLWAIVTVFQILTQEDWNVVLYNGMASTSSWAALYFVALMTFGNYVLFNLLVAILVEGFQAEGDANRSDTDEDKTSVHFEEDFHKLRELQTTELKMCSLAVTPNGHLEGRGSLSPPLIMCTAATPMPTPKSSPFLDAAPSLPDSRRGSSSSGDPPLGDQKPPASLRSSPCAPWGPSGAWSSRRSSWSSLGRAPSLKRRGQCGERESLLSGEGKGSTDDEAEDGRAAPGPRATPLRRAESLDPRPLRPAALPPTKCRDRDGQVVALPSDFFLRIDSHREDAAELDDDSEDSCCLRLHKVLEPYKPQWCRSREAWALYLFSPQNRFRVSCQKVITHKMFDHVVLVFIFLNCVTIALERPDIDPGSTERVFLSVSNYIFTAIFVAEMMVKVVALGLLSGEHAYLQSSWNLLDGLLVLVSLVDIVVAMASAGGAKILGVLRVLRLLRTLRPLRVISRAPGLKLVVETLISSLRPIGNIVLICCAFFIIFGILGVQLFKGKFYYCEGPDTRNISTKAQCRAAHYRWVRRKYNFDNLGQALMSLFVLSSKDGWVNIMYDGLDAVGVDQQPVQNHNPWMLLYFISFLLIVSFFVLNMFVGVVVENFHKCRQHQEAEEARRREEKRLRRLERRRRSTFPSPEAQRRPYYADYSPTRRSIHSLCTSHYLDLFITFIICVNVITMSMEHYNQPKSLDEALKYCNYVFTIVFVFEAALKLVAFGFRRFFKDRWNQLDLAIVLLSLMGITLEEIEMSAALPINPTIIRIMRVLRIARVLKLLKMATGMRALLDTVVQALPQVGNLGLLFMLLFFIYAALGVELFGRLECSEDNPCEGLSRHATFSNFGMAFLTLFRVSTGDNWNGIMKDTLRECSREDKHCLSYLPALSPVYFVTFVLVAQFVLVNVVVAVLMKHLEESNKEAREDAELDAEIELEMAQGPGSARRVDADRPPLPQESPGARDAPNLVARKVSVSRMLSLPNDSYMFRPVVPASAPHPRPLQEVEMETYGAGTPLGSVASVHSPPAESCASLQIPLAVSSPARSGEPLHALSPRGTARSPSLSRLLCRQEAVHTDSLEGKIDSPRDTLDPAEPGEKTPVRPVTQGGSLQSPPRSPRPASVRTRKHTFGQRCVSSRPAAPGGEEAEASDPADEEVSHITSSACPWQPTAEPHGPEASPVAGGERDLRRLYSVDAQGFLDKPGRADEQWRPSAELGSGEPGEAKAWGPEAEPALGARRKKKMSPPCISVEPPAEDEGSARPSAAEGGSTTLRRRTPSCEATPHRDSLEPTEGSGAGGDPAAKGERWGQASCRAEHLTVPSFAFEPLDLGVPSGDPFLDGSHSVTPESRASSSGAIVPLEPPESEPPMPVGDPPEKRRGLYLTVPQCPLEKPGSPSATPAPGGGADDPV
T4 sequence (P11940 whole entry, the tested form may be a part): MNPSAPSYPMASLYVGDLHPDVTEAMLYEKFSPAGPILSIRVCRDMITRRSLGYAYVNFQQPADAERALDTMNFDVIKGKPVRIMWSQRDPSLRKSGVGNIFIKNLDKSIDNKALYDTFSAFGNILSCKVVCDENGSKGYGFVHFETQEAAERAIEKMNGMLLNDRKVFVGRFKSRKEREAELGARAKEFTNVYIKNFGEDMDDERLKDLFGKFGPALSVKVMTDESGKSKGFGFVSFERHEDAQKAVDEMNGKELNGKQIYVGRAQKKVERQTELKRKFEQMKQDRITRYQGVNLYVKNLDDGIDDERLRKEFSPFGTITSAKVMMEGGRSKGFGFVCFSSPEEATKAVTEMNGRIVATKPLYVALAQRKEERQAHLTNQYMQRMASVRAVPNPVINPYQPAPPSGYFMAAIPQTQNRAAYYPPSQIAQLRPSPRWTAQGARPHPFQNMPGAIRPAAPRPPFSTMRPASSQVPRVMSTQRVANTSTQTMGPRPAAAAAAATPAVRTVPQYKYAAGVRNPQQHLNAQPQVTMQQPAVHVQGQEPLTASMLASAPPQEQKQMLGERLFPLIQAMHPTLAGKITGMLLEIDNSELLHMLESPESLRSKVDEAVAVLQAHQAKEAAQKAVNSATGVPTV
Large T antigen, sequence (P03070 whole entry): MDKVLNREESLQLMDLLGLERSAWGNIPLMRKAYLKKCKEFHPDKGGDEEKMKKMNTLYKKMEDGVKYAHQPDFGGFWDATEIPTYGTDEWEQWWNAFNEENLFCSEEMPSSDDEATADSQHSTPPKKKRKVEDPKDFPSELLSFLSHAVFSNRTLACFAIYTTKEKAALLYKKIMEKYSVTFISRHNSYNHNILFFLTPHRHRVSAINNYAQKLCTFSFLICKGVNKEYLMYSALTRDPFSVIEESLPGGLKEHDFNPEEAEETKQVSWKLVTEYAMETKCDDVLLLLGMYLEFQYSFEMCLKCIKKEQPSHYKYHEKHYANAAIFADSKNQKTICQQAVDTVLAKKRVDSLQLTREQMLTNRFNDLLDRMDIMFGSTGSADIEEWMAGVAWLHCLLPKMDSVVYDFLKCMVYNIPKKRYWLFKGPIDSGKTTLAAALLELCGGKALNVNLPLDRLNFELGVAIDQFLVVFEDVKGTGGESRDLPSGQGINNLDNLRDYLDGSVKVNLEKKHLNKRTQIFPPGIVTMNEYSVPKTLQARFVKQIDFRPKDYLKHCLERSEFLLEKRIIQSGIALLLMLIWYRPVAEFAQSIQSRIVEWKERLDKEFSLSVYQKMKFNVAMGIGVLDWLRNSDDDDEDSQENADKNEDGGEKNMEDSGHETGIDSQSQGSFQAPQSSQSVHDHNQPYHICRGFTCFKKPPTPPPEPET
Genome polyprotein, sequence (P29990 2492-3391 limits assumed): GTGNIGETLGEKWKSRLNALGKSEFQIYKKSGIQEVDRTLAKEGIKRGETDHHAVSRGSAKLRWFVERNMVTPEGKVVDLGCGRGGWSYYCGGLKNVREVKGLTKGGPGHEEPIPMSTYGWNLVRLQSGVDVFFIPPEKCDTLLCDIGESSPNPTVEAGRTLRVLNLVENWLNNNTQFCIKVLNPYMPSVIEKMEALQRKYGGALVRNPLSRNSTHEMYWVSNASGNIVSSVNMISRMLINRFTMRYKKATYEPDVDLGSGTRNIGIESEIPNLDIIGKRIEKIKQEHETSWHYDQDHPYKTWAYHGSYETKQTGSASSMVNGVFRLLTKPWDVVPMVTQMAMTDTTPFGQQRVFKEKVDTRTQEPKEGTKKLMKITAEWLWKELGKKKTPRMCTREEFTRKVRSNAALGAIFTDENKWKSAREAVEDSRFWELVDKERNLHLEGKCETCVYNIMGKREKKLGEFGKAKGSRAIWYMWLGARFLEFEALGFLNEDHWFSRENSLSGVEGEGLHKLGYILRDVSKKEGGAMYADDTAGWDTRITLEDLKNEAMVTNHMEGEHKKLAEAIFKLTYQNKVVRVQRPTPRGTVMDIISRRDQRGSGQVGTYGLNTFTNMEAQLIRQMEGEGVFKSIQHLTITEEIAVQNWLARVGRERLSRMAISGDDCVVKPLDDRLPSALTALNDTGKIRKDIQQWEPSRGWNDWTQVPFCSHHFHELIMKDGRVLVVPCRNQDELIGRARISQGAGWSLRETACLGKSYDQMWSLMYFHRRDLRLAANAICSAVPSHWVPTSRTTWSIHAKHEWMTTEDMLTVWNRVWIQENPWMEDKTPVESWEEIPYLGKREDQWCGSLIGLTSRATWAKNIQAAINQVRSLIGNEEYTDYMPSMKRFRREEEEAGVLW
FAD-linked sulfhydryl oxidase ALR, sequence (P55789 whole entry, the tested form may be a part): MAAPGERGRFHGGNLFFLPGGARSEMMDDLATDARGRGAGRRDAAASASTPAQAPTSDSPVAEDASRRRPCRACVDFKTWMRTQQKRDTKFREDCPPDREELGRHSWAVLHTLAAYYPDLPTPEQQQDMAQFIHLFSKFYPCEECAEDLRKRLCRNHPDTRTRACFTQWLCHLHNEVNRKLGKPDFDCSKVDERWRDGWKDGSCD

Structure (SMILES): CCCC(C(=O)NC1CCCC1)N(C(=O)Cn1nnc(-c2ccc(C)o2)n1)C1CCCC1 (stereo not drawn)
- IC50 [1]: 45 µM (active)
- IC50 [2]: 0.221 µM (active)

Structure (SMILES): CCc1ccc(/C=C2/SC(=S)N(CCC(=O)Nc3cccc(C(=O)O)c3)C2=O)cc1
- IC50 [3]: > 80 µM (inactive)

Structure (SMILES): CCOc1ccc(N(C)S(=O)(=O)c2ccc(-c3cc(C)no3)s2)cc1
- IC50 [4]: > 80 µM (inactive)

Structure (SMILES): O=C(CCNc1ccc(Cl)c(C(F)(F)F)c1)c1ccco1
- EC50 [5]: 9.96 µM (active)
- IC50 (cells): 31 µM (active)

Structure (SMILES): O=C(CCCOc1ccccc1)N1CCN(c2ccc(F)cc2)CC1
- EC50 [5]: 4.49 µM (active)

Structure (SMILES): Cc1cc(C)cc(N(CC(=O)NCc2ccc3c(c2)OCO3)C(=O)CCC(=O)Nc2ccccn2)c1
- EC50 [5]: 2.74 µM (active)

Structure (SMILES): CCOC(=O)c1[nH]c(C)c(C(=O)Nc2ccc(C)cc2C)c1C
- IC50 [4]: > 80 µM (inactive)

Structure (SMILES): O=C(Nc1nncs1)c1ccccc1Br
- IC50 (Leucine aminopeptidase): 16 µM (active)

Structure (SMILES): Clc1cccc(Cl)c1OCCOCCNCc1ccccc1
- IC50 [4]: > 80 µM (inactive)

Structure (SMILES): CC(=O)Oc1ccc(-c2ccc(C(=O)NCCc3ccc(S(N)(=O)=O)cc3)cc2)cc1
- IC50 [1]: > 50 µM (inactive)
- IC50 [2]: 11.4 µM (active)

Structure (SMILES): CCOc1ccc(NC(=O)CN2C(=O)CSC(C)C2=O)cc1 (stereo not drawn)
- IC50 (Leucine aminopeptidase): 1.21 µM (active)

Structure (SMILES): Cc1sc(NC(=O)C2CCCCC2C(=O)O)c(C(N)=O)c1-c1ccc(C(C)C)cc1 (stereo not drawn)
- IC50 (Leucine aminopeptidase): 7.2 µM (active)
- IC50 (Genome polyprotein): 62.7 µM (active)

Structure (SMILES): COc1ccc(/C=N/N=C2\SC(CC(=O)O)C(=O)N2c2ccccc2)c(OC)c1 (stereo not drawn)
- IC50 (Leucine aminopeptidase): 95.3 µM (active)

Structure (SMILES): Cc1nn(-c2c(Cl)cc(Cl)cc2Cl)c(=O)c2ccccc12
- CC50 [6]: 30.1 µM (active)

Structure (SMILES): Cc1cc2oc(C(=O)Nc3ccc(S(N)(=O)=O)cc3)c(C)c2cc1Cl
- IC50 [1]: > 50 µM (inactive)
- IC50 [2]: 6.72 µM (active)

Structure (SMILES): COc1ccc(CC(=O)Nc2cccc(-c3ccc4nnc(C)n4n3)c2)cc1
- IC50 [3]: > 80 µM (inactive)

Structure (SMILES): C/C(CC(=O)Nc1ccc2ccccc2c1)=N\NC(=O)c1ccc(O)c(O)c1
- AC50 [7]: 9.2 µM (active)
- IC50 (Large T antigen): 14 µM (active)
- AC50 [8]: 4.3 µM (active)

Structure (SMILES): NS(=O)(=O)c1ccc(-c2ccc(C=C3C(=O)c4ccccc4C3=O)o2)cc1
- IC50 [1]: > 50 µM (inactive)
- IC50 [2]: > 56.8 µM (not active)

Structure (SMILES): O=C(NC(=S)NNS(=O)(=O)c1ccccc1)c1cccnc1
- IC50 [9]: > 66 µM (inactive)
- IC50 [10]: > 66 µM (inactive)
- IC50 (Leucine aminopeptidase): 43.9 µM (active)
- EC50 [11]: > 300 µM (not active)
- EC50 [12]: > 300 µM (not active)

Structure (SMILES): Cc1[nH]c2ccccc2c1C(=O)CN1C(=O)NC2(CC(C)CC(C)(C)C2)C1=O (stereo not drawn)
- EC50 [13]: 22.3 µM (active)
- EC50 [14]: 10.8 µM (active)
- EC50 [15]: 11.4 µM (active)
- IC50 [3]: 52.8 µM (inactive)

Structure (SMILES): COc1ccc(S(=O)(=O)N2CCC(C(=O)N3CCc4ccccc4C3)CC2)cc1C
- EC50 [5]: 4.51 µM (active)

Structure (SMILES): Cc1ccc2nc(O)c(CN(Cc3ccco3)C(=O)c3ccncc3)cc2c1
- CC50 [6]: 13.5 µM (active)

Structure (SMILES): COc1ccc([N+](=O)[O-])cc1CSc1nnc(NC(C)=O)s1
- CC50 [6]: > 40 µM (active)
